Results: patent US7915282B2, “C2-phenyl-substituted cyclic keto-enols used as pesticides and herbicides” (Bayer Aktiengesellschaft, priority 2000, dated 2011)

Tests used:
Type in all cases: in vivo
[1] = test system: greenhouse red spider mite (Tetranychus urticae); assay: Tetranychus test (OP-resistant/dip treatment); conditions: active compound concentration of 1000 ppm; after 7 days; infested bean plants dipped
Method: [table] To produce a suitable preparation of active compound, 1 part by weight of active compound is mixed with the stated amounts of solvent and emulsifier, and the concentrate is diluted with emulsifier-containing water to the desired concentration. Bean plants (Phaseolus vulgaris) which are heavily infested by all stages of the greenhouse red spider mite (Tetranychus urticae) are dipped into a preparation of active compound of the desired concentration. After the desired period of time, the effect in % is determined. 100% means that all spider mites have been killed; 0% means that none of the spider mites have been killed.

Setaria [2] = assay: Post-emergence test; conditions: after three weeks
Method: (§1) [table] To produce a suitable preparation of active compound, 1 part by weight of active compound is mixed with the stated amount of solvent, the stated amount of emulsifier is added and the concentrate is diluted with water to the desired concentration. Test plants of a height of 5-15 cm are sprayed with the preparation of active compound such that the particular amounts of active compound desired are applied per unit area. The concentration of the spray liquor is chosen such that the particular amount of active compound desired is applied in 1000 l of water/ha. After three weeks, the degree of damage to the plants is rated in % damage in comparison to the development of the untreated control. The figures denote: [table]

Sugar beet [3] = assay: Post-emergence test; conditions: after three weeks
Method: as §1

Alopecurus [4] = assay: Post-emergence test; conditions: after three weeks
Method: as §1

Digitaria [5] = assay: Post-emergence test; conditions: after three weeks
Method: as §1

Polygonum = assay: Post-emergence test; conditions: 60 g ai/ha, after three weeks
Method: as §1

Avena fatua = assay: Post-emergence test; conditions: after three weeks
Method: as §1

Setaria [6] = assay: Pre-emergence test; conditions: after three weeks
Method: (§2) [table] To produce a suitable preparation of active compound, 1 part by weight of active compound is mixed with the stated amount of solvent, the stated amount emulsifier is added and the concentrate is diluted with water to the desired concentration. Seeds of the test plants are sown in normal soil. After about 24 hours, the soil is sprayed with the preparation of active compound such that the particular amounts of active compound desired are applied per unit area. The concentration of the spray liquor is chosen such that the particular amounts of active compound desired are applied in 1000 l of water/ha. After three weeks, the degree of damage to the plants is rated in % damage in comparison to the development of the untreated controls. The figures denote: [table]

Lolium [7] = assay: Pre-emergence test; conditions: after three weeks
Method: as §2

Alopecurus [8] = assay: Pre-emergence test; conditions: after three weeks
Method: as §2

Cyperus = assay: Pre-emergence test; conditions: 125 g ai/ha, after three weeks
Method: as §2

Bromus = assay: Pre-emergence test; conditions: 125 g ai/ha, after three weeks
Method: as §2

Digitaria [9] = assay: Pre-emergence test; conditions: 125 g ai/ha, after three weeks
Method: as §2

Soya bean [10] = assay: Pre-emergence test; conditions: after three weeks
Method: as §2

Abutilo = assay: Pre-emergence test; conditions: 125 g ai/ha, after three weeks
Method: as §2

[11] = test system: peach aphids (Myzus persicae); assay: Myzus test; conditions: active compound concentration of 1000 ppm; after 6 days; infested cabbage leaves dipped
Method: [table] To produce a suitable preparation of active compound, 1 part by weight of active compound is mixed with the stated amounts of solvent and emulsifier, and the concentrate is diluted with emulsifier-containing water to the desired concentration. Cabbage leaves (Brassica oleracea) which are heavily infested by the peach aphids (Myzus persicae) are treated by being dipped into the preparation of active compound of the desired concentration. After the desired period of time, the kill in % is determined. 100% means that all aphids have been killed; 0% means that none of the aphids have been killed.

[12] = test system: larvae of the mustard beetle (Phaedon cochleariae); assay: Phaedon larvae test; conditions: active compound concentration of 1000 ppm; after 7 days; cabbage leaves dipped
Method: (§3) [table] To produce a suitable preparation of active compound, 1 part by weight of active compound is mixed with the stated amounts of solvent and emulsifier, and the concentrate is diluted with emulsifier-containing water to the desired concentration. Cabbage leaves (Brassica oleracea) are treated by being dipped into the preparation of active compound of the desired concentration and are populated with larvae of the mustard beetle (Phaedon cochleariae) while the leaves are still moist. After the desired period of time, the kill in % is determined. 100% means that all beetle larvae have been killed; 0% means that none of the beetle larvae have been killed.

[13] = test system: caterpillars of the army worm (Spodoptera frugiperda); assay: Spodoptera frugiperda test; conditions: active compound concentration of 1000 ppm; after 7 days; cabbage leaves dipped
Method: as §3, with “caterpillars” for “larvae”, “army worm (Spodoptera frugiperda)” for “mustard beetle (Phaedon cochleariae)”, “caterpillars” for “beetle larvae”

Galium = assay: Post-emergence test; conditions: 125 g ai/ha, after three weeks
Method: as §1

Lolium [14] = assay: Post-emergence test; conditions: 125 g ai/ha, after three weeks
Method: as §1

Sorghum = assay: Post-emergence test; conditions: 125 g ai/ha, after three weeks
Method: as §1

Oilseed rape = assay: Post-emergence test; conditions: 125 g ai/ha, after three weeks
Method: as §1

[15] = test system: green rice leaf hopper (Nephotettix cincticeps); assay: Nephotettix test; conditions: active compound concentration of 1000 ppm; after 6 days; rice seedlings dipped
Method: [table] To produce a suitable preparation of active compound, 1 part by weight of active compound is mixed with the stated amounts of solvent and emulsifier, and the concentrate is diluted with emulsifier-containing, water to the desired concentration. Rice seedlings (Oryza sativa) are treated by being dipped into the preparation of active compound of the desired concentrated and are populated with the green rice leaf hopper (Nephotettix cincticeps) while the leaves are still moist. After the desired period of time, the kill in % is determined. 100% means that all leaf hoppers have been killed; 0% means that none of the leaf hoppers have been killed.

Soya bean [16] = assay: Post-emergence test; conditions: 125 g ai/ha, after three weeks
Method: as §1

Wheat [17] = assay: Pre-emergence test; conditions: 60 g ai/ha, after three weeks
Method: as §2

Echinochloa = assay: Pre-emergence test; conditions: 60 g ai/ha, after three weeks
Method: as §2

Chenopodium = assay: Pre-emergence test; conditions: 60 g ai/ha, after three weeks
Method: as §2

white fly Bemisia tabaci = assay: Bemisia test; conditions: active compound concentration of 1000 ppm; after 10 days; infested cotton plants dipped
Method: [table] To produce a suitable preparation of active compound, 1 part by weight of active compound is mixed with the stated amounts of solvent and emulsifier, and the concentrate is diluted with emulsifier-containing water to the desired concentrations. Cotton plants (Gossypium hirsutum) which are infested by eggs, larvae and pupae of the white fly Bemisia tabaci are dipped into a preparation of active compound of the desired concentration. After the desired period of time, the kill in % is determined. 100% means that all animals have been killed; 0% means that none of the animals have been killed.

Solanum = assay: Post-emergence test; conditions: 125 g ai/ha, after three weeks
Method: as §1

Wheat [18] = assay: Post-emergence test; conditions: 125 g ai/ha, after three weeks
Method: as §1

Viola = assay: Post-emergence test; conditions: 125 g ai/ha, after three weeks
Method: as §1

Cassia = assay: Post-emergence test; conditions: 125 g ai/ha, after three weeks
Method: as §1

Ipomoea = assay: Post-emergence test; conditions: 125 g ai/ha, after three weeks
Method: as §1

Sugar beet [19] = assay: Pre-emergence test; conditions: 125 g ai/ha, after three weeks
Method: as §2

Veronica = assay: Pre-emergence test; conditions: 125 g ai/ha, after three weeks
Method: as §2

With C#Cc1cc(C)c(C2=C(OC(=O)OCC)C3(CCC(OC)CC3)NC2=O)c(C)c1 (centres unmarked) [Example I-1-c-4] the kill in % [1] was 100%, the “% damage Setaria” value (Setaria [2]; 60 g ai/ha) was 100% and the “% damage Sugar beet” value (Sugar beet [3]; 60 g ai/ha) was 10%. The “% damage Alopecurus” value (Alopecurus [4]; 60 g ai/ha) was 90%, the “% damage Digitaria” value (Digitaria [5]; 60 g ai/ha) was 95% and the “% damage Polygonum” value (Polygonum) was 70%. The “% damage Avena fatua” value (Avena fatua; 60 g ai/ha) was 90%, the “% damage Setaria” value (Setaria [6]; 125 g ai/ha) was 100% and the “% damage Lolium” value (Lolium [7]; 125 g ai/ha) was 100%. For the same compound, the “% damage Alopecurus” value (Alopecurus [8]; 125 g ai/ha) was 95%, the “% damage Cyperus” value (Cyperus) was 100% and the “% damage Bromus” value (Bromus) was 100%. For the same compound, the “% damage Digitaria” value (Digitaria [9]) was 100%, the “% damage Soya bean” value (Soya bean [10]; 125 g ai/ha) was 20% and the “% damage Abutilo” value (Abutilo) was 70%. For the same compound, the kill in % [11] was 100%.
Compound CCc1cc(C)cc(C)c1C1=C(O)C2(CCCCC2)OC1=O [Example I-2-a-3] has a kill in % [12] of 100% and a kill in % [13] of 100%.
In the case of CCc1cc(C)c(C2=C(O)C3(CCC(C)CC3)NC2=O)c(CC)c1 (centres unmarked) [Example I-1-a-2], the kill in % [12] is reported as 100%, the “% damage Galium” value (Galium) is reported as 80% and the “% damage Setaria” value (Setaria [2]; 125 g ai/ha) is reported as 95%. For the same compound, the “% damage Sugar beet” value (Sugar beet [3]; 125 g ai/ha) was 0%, the “% damage Lolium” value (Lolium [14]) was 70% and the “% damage Digitaria” value (Digitaria [5]; 125 g ai/ha) was 80%. The “% damage Sorghum” value (Sorghum) was 80%, the “% damage Oilseed rape” value (Oilseed rape) was 0% and the kill in % [15] was 100%.
In the case of CCc1cc(CC)c(C2=C(O)C3(CCC(C)CC3)NC2=O)c(CC)c1 (centres unmarked) [Example I-1-a-5], the “% damage Galium” value (Galium) is reported as 80%, the “% damage Setaria” value (Setaria [2]; 125 g ai/ha) is reported as 100% and the “% damage Digitaria” value (Digitaria [5]; 125 g ai/ha) is reported as 90%. For the same compound, the “% damage Soya bean” value (Soya bean [16]) was 10%, the “% damage Sorghum” value (Sorghum) was 95% and the “% damage Setaria” value (Setaria [6]; 60 g ai/ha) was 100%. The “% damage Lolium” value (Lolium [7]; 60 g ai/ha) was 100%, the “% damage Wheat” value (Wheat [17]) was 0% and the “% damage Alopecurus” value (Alopecurus [8]; 60 g ai/ha) was 100%. The “% damage Echinochloa” value (Echinochloa) was 100%, the “% damage Chenopodium” value (Chenopodium) was 70% and the “% damage Soya bean” value (Soya bean [10]; 60 g ai/ha) was 0%.
CCc1cc(C)cc(C)c1C1=C(OC(=O)C(C)(C)C)C2(CCC(OC)CC2)OC1=O (centres unmarked) [Example I-2-b-10] was tested, and the kill in % [1] was 100%, the kill in % (white fly Bemisia tabaci) was 100% and the “% damage Solanum” value (Solanum) was 80%. For the same compound, the “% damage Lolium” value (Lolium [14]) was 80%, the “% damage Wheat” value (Wheat [18]) was 10% and the “% damage Viola” value (Viola) was 90%. The “% damage Cassia” value (Cassia) was 95%.
In the case of C#Cc1cc(C)c(C2=C(O)C3(CCC(OC)CC3)NC2=O)c(C)c1 (centres unmarked) [Example I-1-a-21], the kill in % [12] is reported as 100%, the kill in % [1] is reported as 100% and the “% damage Setaria” value (Setaria [2]; 125 g ai/ha) is reported as 99%. For the same compound, the “% damage Sugar beet” value (Sugar beet [3]; 125 g ai/ha) was 0%, the “% damage Lolium” value (Lolium [14]) was 95% and the “% damage Alopecurus” value (Alopecurus [4]; 125 g ai/ha) was 100%. For the same compound, the “% damage Digitaria” value (Digitaria [5]; 125 g ai/ha) was 100%, the “% damage Ipomoea” value (Ipomoea) was 70% and the “% damage Avena fatua” value (Avena fatua; 125 g ai/ha) was 90%. For the same compound, the “% damage Setaria” value (Setaria [6]; 125 g ai/ha) was 100%, the “% damage Sugar beet” value (Sugar beet [19]) was 0% and the “% damage Veronica” value (Veronica) was 100%. For the same compound, the “% damage Lolium” value (Lolium [7]; 125 g ai/ha) was 100%, the “% damage Alopecurus” value (Alopecurus [8]; 125 g ai/ha) was 100% and the “% damage Digitaria” value (Digitaria [9]) was 100%. For the same compound, the “% damage Soya bean” value (Soya bean [10]; 125 g ai/ha) was 0%.
